# Assay results published in US7628996B2, “Sterile immunogenic non-tumorigenic tumor cell compositions and methods” (priority 2002, dated 2009).
# Several values for one entry are separate records, joined by “and”; a condition that tells them apart may be missing. Equal entries are not always repeated. Entries after “also recorded” stand apart in the source; their conditions may differ.
# Assays:
# Bacteriodes vulgatus = experiment: Short exposure of test microorganism to antibiotic; assay type: cell-based
# Procedure: (§1) Appropriate test microorganisms were incubated with the antibiotic for varying periods of time and at 4° C. or 37° C. “Untreated” controls were incubated with HBSS. After completion of the treatment, the samples were assayed for bioburden by the membrane filtration method on Tryptic Soy agar containing 5% sheep blood (TSA-SB) and Sabouraud's dextrose medium (SAB).
# Anaerobes are the predominant microorganisms in the colon. […] Lincomycin (Lincocin hydrochloride) (Sigma-Aldrich Co.) and Primaxin® were then tested against this anaerobe.
# Pseudomonas aeruginosa = experiment: Short exposure of test microorganism to antibiotic; assay type: cell-based; conditions: 12.5 to 50 μg/mL, one hour at 37° C.
# Procedure: as §1
# (§2) Two members of the quinolone class of antibiotics norfloxacin (Noroxin® (Merck & Co., Inc.)) and levofloxacin (Levaquin® (Ortho-McNeil)) also were evaluated. In preliminary experiments, norfloxacin was tested against Enterococcus faecalis and Pseudomonas aeruginosa.
# Enterococcus faecalis = experiment: Short exposure of test microorganism to antibiotic; assay type: cell-based; conditions: 12.5 to 50 μg/mL, one hour at 37° C.
# Procedure: as §1, §2
# Candida albicans = experiment: Short exposure of test microorganism to anti-mycotic; assay type: cell-based
# Procedure: as §1
# Amphotericin B was selected for action on yeasts and mold.
# [1] = system: bioburden of colon tumors; experiment: Disinfection of trimmed colon tumor pieces before dissociation: bioburden of tumor cell suspension; assay type: cell-based; conditions: for effect of disinfectant on bioburden (in words): treatment of trimmed tumor pieces, concentrations tested; for Bioburden SAB-CM Aerobic / Bioburden TSA-SB Aerobic / Bioburden TSA-SB Anaerobic: per patient tumor sample
# Description: (§3) For pathological staging purposes, the pathologist cuts the tumor to determine the deepest margin of penetration. Consequently, the excised tumors are comprised of several pieces of tumor tissue. The tissue was dissected to remove extraneous non-tumor and necrotic tissue. The trimmed tumor pieces were further subdivided to achieve homogeneity and divided into two to four groups for processing according to the experimental design. The tissue was divided as evenly as possible among the samples, taking care to make the tumor pieces in the experimental groups appear as identical as possible. The trimmed pieces were added to a tube containing 40 mL of disinfectant and then treated by shaking for 2 minutes at 200 rpm on a rotating platform shaker. The trimmed tumor pieces were then washed three times with HBSS and then dissociated. The amount of tumor dissociated was determined by weighing the tumor fragments prior to dissociation and after completion of the dissociation cycles. After dissociation, the tumor cell suspension was sampled for percent tumor cell viability, number of viable tumor cells, tumor cell potency and bioburden. The yield was defined as the number of viable tumor cells obtained per gram of tumor that was actually dissociated. The bioburden was normalized to CFU/10^7 viable tumor cells, approximately one dose of product.
# (§4) Tumor sample 500-0051-KNO was washed with saline, a second wash with 1% Triton X-100 and followed by three additional saline washes (see Example 1). The resultant bioburden was below the limit of detection of the assay. In order to evaluate the ability of a disinfectant to remove bioburden, one to two logs of bioburden must be detectable in the control sample. In order to maximize the possible bioburden in the tumors and present a greater challenge to the disinfectant, the following modifications to the procedure were made: the tumors were minimally washed (one 500 mL quantity) prior to pathological dissection; the dissociations were performed in the absence of gentamicin.
# colon tumor cells = experiment: Disinfection of trimmed colon tumor pieces before dissociation: tumor cell viability, yield, potency; assay type: cell-based, human; conditions: treatment of trimmed tumor pieces, relative to control
# Description: as §3, with “The trimmed tumor pieces were then washed three times with HBSS and then dissociated.” left out, “After dissociation, the tumor cell suspension was sampled for percent tumor cell viability, number of viable tumor cells, tumor cell potency and bioburden. The yield was defined as the number of viable tumor cells obtained per gram of tumor that was actually dissociated. The bioburden was normalized to CFU/10^7 viable tumor cells, approximately one dose of product.” left out
# as §4, with “The resultant bioburden was below the limit of detection of the assay. In order to evaluate the ability of a disinfectant to remove bioburden, one to two logs of bioburden must be detectable in the control sample.” left out
# [2] = system: endogenous bioburden present in colon tumors; experiment: Additional one hour incubation with antibiotics after enzymatic dissociation: bioburden; assay type: cell-based; conditions: additional incubation vs no incubation; per tumor
# Procedure: as §1
# For the first four tumors processed, a portion of the cell suspension dissociated in the presence of gentamicin or gentamicin with other antibiotics was also incubated for an additional hour (after completion of the dissociation) with the same antibiotic(s). This additional incubation was evaluated for increased reduction of bioburden.
# microbial growth = experiment: Disinfection of trimmed colon tumor pieces before dissociation: sterility in TSB and FTG broth; assay type: cell-based; parameters: key: Pass (P) (no evidence of microbial growth); Fail (F) (Microbial growth); conditions: per patient tumor sample
# Description: as §3, §4
# [3] = 0.4% Clorpactin, 2 successive 2 min treatments
# [4] = 0.4% Clorpactin, one 2 min treatment
compound,measurement,setting,value
Cc1ncc([N+](=O)[O-])n1CCO [Flagyl],effectiveness against the anaerobe (in words),"Bacteriodes vulgatus; 2.5 and 5 μg/mL, aerobic incubation conditions",ineffectual
"CCn1cc(C(=O)O)c(=O)c2cc(F)c(N3CCNCC3)cc21 [Norfloxacin, norfloxacin]",effectiveness (in words),Pseudomonas aeruginosa,highly effective
same,effectiveness (in words),Enterococcus faecalis,ineffectual
C[C@@H]1[C@H](O)[C@@H](C)/C=C/C=C/C=C/C=C/C=C/C=C/C=C/[C@H](O[C@@H]2O[C@H](C)[C@@H](O)[C@H](N)[C@@H]2O)C[C@@H]2O[C@](O)(C[C@@H](O)C[C@@H](O)[C@H](O)CC[C@@H](O)C[C@@H](O)CC(=O)O[C@H]1C)C[C@H](O)[C@H]2C(=O)O [amphotericin B],reduction in colonies (in words),"Candida albicans; 0.5 to 1.0 μg/mL, observed one day after treatment",Marked reduction in colonies
same,inhibition (in words),"Candida albicans; observed after 8 days in culture, higher concentration",only slight inhibition
"CCC[C@@H]1C[C@@H](C(=O)N[C@@H]([C@H]2O[C@H](SC)[C@H](O)[C@@H](O)[C@H]2O)[C@@H](C)O)N(C)C1 [lincomycin, Lincomycin]",reduction of the anaerobe,"Bacteriodes vulgatus; extended conditions: 40 minutes at 37° C., 4° C. for 60 minutes, additional 60 minutes at 37° C.",one log reduction
same,reduction of the anaerobe,"Bacteriodes vulgatus; overnight at 4° C., Primaxin 100 μg/mL, lincomycin up to 150 μg/mL",no effect
OCl [sodium hypochlorite],effect of disinfectant on bioburden (in words),[1],effective in reducing the bioburden
same,effect of disinfectant on tumor cell yield (in words),colon tumor cells,significantly reduced the tumor cell yield relative to the control
gentamicin,"Percent Reduction of Bioburden, SAB medium",[2],80%
same,"Percent Reduction of Bioburden, TSA medium",[2],41%
sodium oxychlorosene [Clorpactin ®],Bioburden SAB-CM Aerobic,[1]; [3],≦2 CFU/107 Cells
same,Bioburden TSA-SB Aerobic,[1]; [3],≦2 CFU/107 Cells
same,Bioburden TSA-SB Anaerobic,[1]; [3],3800 CFU/107 Cells and ≦2 CFU/107 Cells
same,% Reduction of bioburden TSA-SB Aerobic,"[1]; 0.4% Clorpactin, 2 successive 2 min treatments, vs control of same tumor",(99%)
same,two successive two minute treatments versus single treatment (in words),"[1]; 0.4% Clorpactin, fresh disinfectant each time",No advantage for two treatments was observed
same,Bioburden SAB-CM Aerobic,[1]; [4],207 CFU/107 Cells and ≦11 CFU/107 Cells and ≦23 CFU/107 Cells and ≦2 CFU/107 Cells (2×) and <49 CFU/107 Cells
same,Bioburden TSA-SB Aerobic,[1]; [4],3910 CFU/107 Cells and <11 CFU/107 Cells and <23 CFU/107 Cells and 2 CFU/107 Cells and ≦2 CFU/107 Cells and <49 CFU/107 Cells
same,Bioburden TSA-SB Anaerobic,[1]; [4],3890 CFU/107 Cells and 343 CFU/107 Cells and <23 CFU/107 Cells and 294 CFU/107 Cells and ≦2 CFU/107 Cells and <49 CFU/107 Cells
same,Bioburden SAB-CM Aerobic,"[1]; 0.8% Clorpactin, 2 min",4452 CFU/107 Cells and ≦13 CFU/107 Cells
same,Bioburden TSA-SB Aerobic,"[1]; 0.8% Clorpactin, 2 min",7100 CFU/107 Cells and <13 CFU/107 Cells
same,Bioburden TSA-SB Anaerobic,"[1]; 0.8% Clorpactin, 2 min",8870 CFU/107 Cells and 1364 CFU/107 Cells
same,% Reduction of bioburden TSA-SB Anaerobic,"[1]; 0.8% Clorpactin, 2 min, vs control of same tumor",(92%)
same,effect on bioburden (in words),[1]; Clorpactin at 0.8% compared with 0.4%,no further reduction in bioburden was observed
same,effect of disinfectant on bioburden (in words),[1],reduced the bioburden in the sample; also recorded: bioburden reductions to almost three orders of magnitude
same,Sterility FTG,microbial growth; [3],F and P
same,Sterility TSB,microbial growth; [3],F
same,Sterility FTG,microbial growth; [4],F (3×) and P (3×)
same,Sterility TSB,microbial growth; [4],F (4×) and P (2×)
same,Sterility FTG,"microbial growth; 0.8% Clorpactin, 2 min",F
same,Sterility TSB,"microbial growth; 0.8% Clorpactin, 2 min",F
